Assay [1] deals with MCF7. The assay is described as follows: Cytotoxicity against human MCF7 cells after 48 hrs by MTT assay. The class given is functional, cell-based. Conditions: MCF7, 48 h.
Assay [2] is described as follows: Inhibition of bovine brain tubulin polymerization after 20 mins. Also noted: species or system Bos taurus.
The subject of assay [3] is MCF7. Briefly: Cell cycle arrest in human MCF7 cells assessed as accumulation at G2/M phase at 250 nM after 24 hrs by flow cytometry. The class given is functional. For orientation: A flow cytometer gives signals particle by particle.
In assay [4] the test system is MCF7. Briefly: Cell cycle arrest in human MCF7 cells assessed as accumulation at S phase at 25 nM after 24 hrs by flow cytometry. The class given is functional.
For assay [5], the system named is MCF7. The assay is described as follows: Cell cycle arrest in human MCF7 cells assessed as accumulation at S phase at 250 nM after 24 hrs by flow cytometry. The class given is functional.
Assay [6] has as its system MCF7. Briefly: Cell cycle arrest in human MCF7 cells assessed as accumulation at G2/M phase at 25 nM after 24 hrs by flow cytometry. The class given is functional.
In assay [7] the test system is MCF7. Briefly: Cell cycle arrest in human MCF7 cells assessed as accumulation at G1 phase at 250 nM after 24 hrs by flow cytometry. The class given is functional.
Assay [8] has as its system MCF7. Briefly: Cell cycle arrest in human MCF7 cells assessed as accumulation at G1 phase at 25 nM after 24 hrs by flow cytometry. The class given is functional.

Data on 22 compounds can be found in ChEMBL document CHEMBL1165975, “Synthesis, molecular modeling and biological evaluation of dithiocarbamates as novel antitubulin agents” (Bioorg Med Chem, 2010).

The IC50 is the midpoint of a concentration-inhibition curve.

Regarding `CCN(CC)C(=S)SC(CC(=O)c1ccccc1)c1ccccc1` (configuration not stated), the IC50 amounted to 17 µM with MCF7 [1] and 130 µM in assay [2].

In the case of `CCN(CC)C(=S)SC(CC(=O)c1ccc(Cl)cc1)c1ccccc1` (configuration not stated), the IC50 with MCF7 [1] was 0.04 µM; in assay [2], 6.8 µM. The Activity with MCF7 [3] worked out at 39.54%; in the assay on MCF7 [4] it was 16.28%; with MCF7 [5] it was 12.22%; with MCF7 [6], 19.99%; in the assay with MCF7 [7], 12.86%; in the assay with MCF7 [8] it was 50.86%.

With `CCN(CC)C(=S)SC(CC(C)=O)c1ccccc1` (configuration not stated), the IC50 with MCF7 [1] turned out to be 23 µM; in assay [2], 250 µM.

As to `CCN(CC)C(=S)SC(CC(=O)c1ccccc1)c1ccc(F)cc1` (configuration not stated), the IC50 worked out at 0.7 µM with MCF7 [1] and 80 µM in assay [2].

Turning to `CCN(CC)C(=S)SC(CC(=O)c1ccccc1)c1ccc(C)cc1` (configuration not stated), the IC50 was 20 µM in the assay with MCF7 [1] and 220 µM in assay [2].

In the case of `CCN(CC)C(=S)SC(CC(=O)c1ccccc1)c1ccc(Cl)cc1` (configuration not stated), the IC50 in the assay with MCF7 [1] was determined as 0.12 µM; in assay [2], 15 µM.

For `CCN(CC)C(=S)SC(CC(=O)c1ccccc1)c1ccc(Br)cc1` (configuration not stated), the IC50 with MCF7 [1] amounted to 0.08 µM; in assay [2], 12 µM.

Regarding `CCN(CC)C(=S)SC(CC(=O)c1ccc(OC)cc1)c1ccccc1Cl` (configuration not stated), the IC50 in the assay with MCF7 [1] was determined as 0.07 µM; in assay [2], 10 µM.

As for `CCN(CC)C(=S)SC(CC(=O)c1ccc(OC)cc1)c1ccc(C)cc1` (configuration not stated), the IC50 is 17 µM with MCF7 [1] and 180 µM in assay [2].

In the case of `CCN(CC)C(=S)SC(CC(=O)c1ccc(Br)cc1)c1ccc(F)cc1` (configuration not stated), the figures for the IC50 (with MCF7 [1]; in assay [2]) were 1 µM and 18 µM, respectively.

For `CCN(CC)C(=S)SC(CC(=O)c1ccc(OC)cc1)c1ccc(OC)cc1` (configuration not stated), the concentration for half-maximal inhibition (IC50) was 0.8 µM in the assay on MCF7 [1] and 84 µM in assay [2].

For `CCN(CC)C(=S)SC(CC(=O)c1ccccc1)c1ccccc1Cl` (configuration not stated), the results for the IC50 (in the assay on MCF7 [1]; in assay [2]) were 4.5 µM and 52 µM, respectively.

Turning to `CCN(CC)C(=S)SC(CC(=O)c1ccccc1)c1cccc([N+](=O)[O-])c1` (configuration not stated), the IC50 in the assay with MCF7 [1] amounted to 9 µM; in assay [2], 90 µM.

Regarding `CCN(CC)C(=S)SC(CC(=O)c1ccc(Br)cc1)c1ccccc1` (configuration not stated), the figures for the IC50 (in the assay on MCF7 [1]; in assay [2]) were 5 µM and 65 µM, respectively.

Take `CCN(CC)C(=S)SC(CC(=O)c1ccc(Cl)c(Cl)c1)c1ccccc1` (configuration not stated): the IC50 amounted to 4.5 µM in the assay with MCF7 [1] and 60 µM in assay [2].

On to `CCN(CC)C(=S)SC(CC(=O)c1ccc(OC)cc1)c1ccc(Cl)cc1` (configuration not stated), for which the IC50 with MCF7 [1] turned out to be 16 µM; in assay [2], 140 µM.

On to `CCN(CC)C(=S)SC(CC(=O)c1ccccc1)c1ccc(OC)cc1` (configuration not stated), for which the IC50 with MCF7 [1] turned out to be 4.6 µM; in assay [2], 45 µM.

`CCN(CC)C(=S)SC(CC(=O)c1ccccc1)c1ccccc1OC` (configuration not stated): the results for the half-inhibitory concentration (IC50) (in the assay on MCF7 [1]; in assay [2]) were 16 µM and 150 µM, respectively.

`CCN(CC)C(=S)SC(CC(=O)c1ccc(Br)cc1)c1ccc(OC)cc1` (configuration not stated): the IC50 with MCF7 [1] was 5 µM; in assay [2], 52 µM.

In the case of `CCN(CC)C(=S)SC(CC(=O)c1ccc(OC)cc1)c1ccccc1` (configuration not stated), the IC50 with MCF7 [1] is 4.5 µM; in assay [2], 62 µM.

Consider `COc1cc2c(c(OC)c1OC)-c1ccc(OC)c(=O)cc1[C@@H](NC(C)=O)CC2` [COLCHICINE], for which the IC50 in the assay with MCF7 [1] stood at 0.017 µM; in assay [2], 3.2 µM. Moreover, the Activity with MCF7 [4] worked out at 15.96%; in the assay on MCF7 [6], 32.28%; in the assay on MCF7 [8], 24.31%.

On to `COc1ccc(/C=C\c2cc(OC)c(OC)c(OC)c2)cc1O` [COMBRETASTATIN A4], for which, in assay [2], inhibition was half-maximal at 2.2 µM (IC50).
